According to ChEMBL document CHEMBL5150003, “Why All the Fury over Furin?” (J Med Chem, 2022):
One block for each compound: values may come before it. Peptide text beside a SMILES is read from it.

Legend:
[1] = target: T1, Furin (Homo sapiens, UniProt P09958); test: Inhibition of Tev-FLAG-His-tagged furin (108 to 574 residues) (unknown origin) using FAM-QRVRRAVGIDK-TAMRA as substrate and measured after 2 hrs
[2] = tested on: Mus musculus; test: Antifibrotic activity against bleomycin-induced mouse lung fibrosis model assessed as inhibition of TGF-beta secretion in lung at 10 mg/kg, po administered once daily; format: functional
[3] = target: T1, Furin; test: Inhibition of furin in human U2OS cells measured after 24 hrs by fluorescence assay; format: cell-based
[4] = tested on: Mus musculus; test: Antifibrotic activity against bleomycin-induced mouse lung fibrosis model assessed as inhibition of hydroxyproline content in lung at 10 mg/kg, po administered once daily; format: functional
[5] = target: T1, Furin; test: Inhibition of furin (unknown origin)
[6] = Inhibition of human papilloma virus-11 replication in HEK293 cells measured by transient DNA replication assay; format: functional, cell-based; conditions: human papillomavirus 11, HEK293
[7] = target: T2, Proprotein convertase subtilisin/kexin type 6 (Homo sapiens, UniProt P29122); test: Inhibition of PACE4 (unknown origin)
T2 sequence (P29122 whole entry): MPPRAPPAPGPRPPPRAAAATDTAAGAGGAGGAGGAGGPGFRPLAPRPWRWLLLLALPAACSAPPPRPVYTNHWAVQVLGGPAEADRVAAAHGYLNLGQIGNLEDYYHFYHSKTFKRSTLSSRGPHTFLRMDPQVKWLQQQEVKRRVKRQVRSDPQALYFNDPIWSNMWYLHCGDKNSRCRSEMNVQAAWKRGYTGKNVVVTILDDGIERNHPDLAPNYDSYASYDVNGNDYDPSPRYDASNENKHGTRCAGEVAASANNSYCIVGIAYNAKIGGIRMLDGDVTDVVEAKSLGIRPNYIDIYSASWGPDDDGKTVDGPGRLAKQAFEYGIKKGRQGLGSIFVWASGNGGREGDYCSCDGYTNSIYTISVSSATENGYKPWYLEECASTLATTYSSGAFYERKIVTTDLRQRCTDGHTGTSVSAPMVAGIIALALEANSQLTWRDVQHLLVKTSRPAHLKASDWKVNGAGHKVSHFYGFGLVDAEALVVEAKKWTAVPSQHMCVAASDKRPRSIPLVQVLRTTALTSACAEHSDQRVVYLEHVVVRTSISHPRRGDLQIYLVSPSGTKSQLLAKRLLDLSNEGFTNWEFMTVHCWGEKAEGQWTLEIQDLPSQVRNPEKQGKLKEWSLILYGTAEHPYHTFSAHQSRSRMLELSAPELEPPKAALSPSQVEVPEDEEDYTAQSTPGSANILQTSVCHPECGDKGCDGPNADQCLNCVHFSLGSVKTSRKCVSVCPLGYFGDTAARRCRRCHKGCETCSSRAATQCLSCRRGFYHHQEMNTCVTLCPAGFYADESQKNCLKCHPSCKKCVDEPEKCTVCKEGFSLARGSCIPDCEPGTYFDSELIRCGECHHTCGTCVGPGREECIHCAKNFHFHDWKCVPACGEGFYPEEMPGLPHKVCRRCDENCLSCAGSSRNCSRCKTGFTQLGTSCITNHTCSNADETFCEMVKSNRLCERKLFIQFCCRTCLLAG

[8] = Inhibition of porcine trypsin using Mes-DArg-Gly-Arg-AMC as substrate and measured by fluorescence assay; set-up: species or system Sus scrofa
[9] = target: Prothrombin (Bos taurus, UniProt P00735); test: Inhibition of bovine thrombin using Tos-Gly-Pro-Arg-AMC as substrate and measured by fluorescence assay
[10] = target: Plasminogen (Homo sapiens, UniProt P00747); test: Inhibition of human plasmin using Mes-DArg-Phe-Arg-AMC as substrate and measured by fluorescence assay
Sequence of Plasminogen (P00747 97-580 limits assumed): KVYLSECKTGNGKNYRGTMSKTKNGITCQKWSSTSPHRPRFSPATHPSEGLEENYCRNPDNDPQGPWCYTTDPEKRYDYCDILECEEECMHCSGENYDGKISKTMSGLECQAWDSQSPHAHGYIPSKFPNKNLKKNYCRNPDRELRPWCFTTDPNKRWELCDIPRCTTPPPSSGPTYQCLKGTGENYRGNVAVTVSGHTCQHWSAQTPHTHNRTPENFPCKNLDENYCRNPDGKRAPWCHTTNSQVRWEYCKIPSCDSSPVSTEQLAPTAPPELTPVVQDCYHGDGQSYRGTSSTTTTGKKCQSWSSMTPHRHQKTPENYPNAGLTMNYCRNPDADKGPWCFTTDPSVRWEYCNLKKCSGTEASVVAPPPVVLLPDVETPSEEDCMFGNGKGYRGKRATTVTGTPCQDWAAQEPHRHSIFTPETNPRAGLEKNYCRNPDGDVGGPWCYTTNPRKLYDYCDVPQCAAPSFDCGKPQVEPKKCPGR
Sequence of Plasminogen (P00747 581-810 limits assumed): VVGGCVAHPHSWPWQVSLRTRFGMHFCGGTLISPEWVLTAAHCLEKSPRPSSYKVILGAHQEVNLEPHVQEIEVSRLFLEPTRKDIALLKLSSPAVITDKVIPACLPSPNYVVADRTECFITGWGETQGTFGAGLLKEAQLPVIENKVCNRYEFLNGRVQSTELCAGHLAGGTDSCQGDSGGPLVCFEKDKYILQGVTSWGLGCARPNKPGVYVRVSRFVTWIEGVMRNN

[11] = target: Coagulation factor X (Homo sapiens, UniProt P00742); test: Inhibition of human fXa using Mes-DArg-Pro-Arg-AMC as substrate and measured by fluorescence assay
Sequence of Coagulation factor X (P00742 41-179 limits assumed): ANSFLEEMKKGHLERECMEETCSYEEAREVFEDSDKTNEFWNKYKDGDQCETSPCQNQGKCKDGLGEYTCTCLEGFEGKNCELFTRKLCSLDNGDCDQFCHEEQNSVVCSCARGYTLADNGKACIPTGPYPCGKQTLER
Sequence of Coagulation factor X (P00742 235-488 limits assumed): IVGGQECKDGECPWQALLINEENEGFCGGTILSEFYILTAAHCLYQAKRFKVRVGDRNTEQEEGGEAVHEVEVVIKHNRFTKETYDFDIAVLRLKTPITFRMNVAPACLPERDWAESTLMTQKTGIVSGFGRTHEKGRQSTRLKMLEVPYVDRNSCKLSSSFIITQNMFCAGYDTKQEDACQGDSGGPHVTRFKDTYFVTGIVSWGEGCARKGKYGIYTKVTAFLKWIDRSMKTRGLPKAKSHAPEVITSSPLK

[12] = target: T1, Furin; test: Inhibition of recombinant human furin using Phac-Arg-Val-Arg-Arg-AMC as substrate incubated for 30 mins and measured by microplate reader method
[13] = target: T1, Furin; test: Inhibition of soluble human furin using boc-RVRR-MCA as substrate incubated for 45 mins and measured by fluorescence assay

T1 sequence (P09958 whole entry, the tested form may be a part): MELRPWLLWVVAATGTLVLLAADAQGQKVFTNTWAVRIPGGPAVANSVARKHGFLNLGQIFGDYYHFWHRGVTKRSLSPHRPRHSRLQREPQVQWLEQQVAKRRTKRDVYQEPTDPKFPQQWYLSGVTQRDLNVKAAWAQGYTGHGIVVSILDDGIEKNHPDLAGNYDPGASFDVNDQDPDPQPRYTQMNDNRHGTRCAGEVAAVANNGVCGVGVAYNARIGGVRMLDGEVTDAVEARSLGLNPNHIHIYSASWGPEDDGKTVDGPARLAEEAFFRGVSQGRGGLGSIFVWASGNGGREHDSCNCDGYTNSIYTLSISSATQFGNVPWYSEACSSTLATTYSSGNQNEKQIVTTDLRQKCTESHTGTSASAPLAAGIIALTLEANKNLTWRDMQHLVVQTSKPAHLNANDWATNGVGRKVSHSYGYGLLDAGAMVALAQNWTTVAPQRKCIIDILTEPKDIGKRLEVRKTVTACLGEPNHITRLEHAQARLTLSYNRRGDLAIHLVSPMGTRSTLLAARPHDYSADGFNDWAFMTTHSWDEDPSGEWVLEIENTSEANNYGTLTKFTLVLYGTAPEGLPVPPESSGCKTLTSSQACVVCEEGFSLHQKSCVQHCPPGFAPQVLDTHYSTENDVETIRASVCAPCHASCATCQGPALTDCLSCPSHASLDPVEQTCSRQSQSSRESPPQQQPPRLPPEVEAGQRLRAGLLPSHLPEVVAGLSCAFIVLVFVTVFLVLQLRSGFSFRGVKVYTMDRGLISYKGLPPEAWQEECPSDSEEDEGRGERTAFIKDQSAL

IC50 [1]: 0.794 nM | pXC50 [3]: 8
Structure (SMILES): CC(CC1CCN(Cc2cc(Oc3cnc(N4CCN(C)CC4)nc3)nc(-c3cc(Cl)cc(Cl)c3)c2)CC1)C(=O)O (centres undefined)
inhibition in vivo at 10 mg/kg [2]: 81% | inhibition in vivo at 10 mg/kg [4]: 54%

Ki [5]: 1570 nM | IC50 [6]: 1700 nM
Structure (SMILES): CSc1oc(-c2ccc(Cl)cc2Cl)nc1[P+](c1ccccc1)(c1ccccc1)c1ccccc1

Further lines, the compound ahead of its results:

Structure (SMILES): CC(=O)N[C@@H](CC(C)C)C(=O)N[C@@H](CC(C)C)C(=O)N[C@@H](CC(C)C)C(=O)N[C@@H](CC(C)C)C(=O)N[C@@H](CCCNC(=N)N)C(=O)N[C@H](C(=O)N[C@@H](CCCCN)C(=O)N[C@@H](CCCNC(=N)N)C(N)=O)C(C)C (Ac-LLLLRVKR-NH2)
IC50 [5]: 20 nM | IC50 [7]: 30 nM

Structure (SMILES): CC(C)(C)[C@H](NC(=O)[C@H](CCCONC(=N)N)NC(=O)Cc1ccc(CNC(=N)N)cc1)C(=O)N[C@@H](CCCONC(=N)N)C(=O)NCc1ccc(C(=N)N)cc1
Ki [8]: 690 nM | Ki [9]: > 3000 nM | Ki [10]: > 3000 nM | Ki [11]: > 3000 nM | Ki [12]: 0.0101 nM

Structure (SMILES): N=C(N)N/N=C/c1ccccc1OCc1ccc(Cl)cc1
Ki [13]: 25300 nM
